{"source": "paper PMC8213057", "about": "“Targeting ALK2: An Open Science Approach to Developing Therapeutics for the Treatment of Diffuse Intrinsic Pontine Glioma” (Journal of Medicinal Chemistry, 2020)", "settings_in_all_cases": "1 μM; Run 1, Run 2", "key": {"JAK3": {"biological_target": "T1, JAK3 (Homo sapiens, UniProt P52333)", "T1 sequence (P52333 1-1124)": "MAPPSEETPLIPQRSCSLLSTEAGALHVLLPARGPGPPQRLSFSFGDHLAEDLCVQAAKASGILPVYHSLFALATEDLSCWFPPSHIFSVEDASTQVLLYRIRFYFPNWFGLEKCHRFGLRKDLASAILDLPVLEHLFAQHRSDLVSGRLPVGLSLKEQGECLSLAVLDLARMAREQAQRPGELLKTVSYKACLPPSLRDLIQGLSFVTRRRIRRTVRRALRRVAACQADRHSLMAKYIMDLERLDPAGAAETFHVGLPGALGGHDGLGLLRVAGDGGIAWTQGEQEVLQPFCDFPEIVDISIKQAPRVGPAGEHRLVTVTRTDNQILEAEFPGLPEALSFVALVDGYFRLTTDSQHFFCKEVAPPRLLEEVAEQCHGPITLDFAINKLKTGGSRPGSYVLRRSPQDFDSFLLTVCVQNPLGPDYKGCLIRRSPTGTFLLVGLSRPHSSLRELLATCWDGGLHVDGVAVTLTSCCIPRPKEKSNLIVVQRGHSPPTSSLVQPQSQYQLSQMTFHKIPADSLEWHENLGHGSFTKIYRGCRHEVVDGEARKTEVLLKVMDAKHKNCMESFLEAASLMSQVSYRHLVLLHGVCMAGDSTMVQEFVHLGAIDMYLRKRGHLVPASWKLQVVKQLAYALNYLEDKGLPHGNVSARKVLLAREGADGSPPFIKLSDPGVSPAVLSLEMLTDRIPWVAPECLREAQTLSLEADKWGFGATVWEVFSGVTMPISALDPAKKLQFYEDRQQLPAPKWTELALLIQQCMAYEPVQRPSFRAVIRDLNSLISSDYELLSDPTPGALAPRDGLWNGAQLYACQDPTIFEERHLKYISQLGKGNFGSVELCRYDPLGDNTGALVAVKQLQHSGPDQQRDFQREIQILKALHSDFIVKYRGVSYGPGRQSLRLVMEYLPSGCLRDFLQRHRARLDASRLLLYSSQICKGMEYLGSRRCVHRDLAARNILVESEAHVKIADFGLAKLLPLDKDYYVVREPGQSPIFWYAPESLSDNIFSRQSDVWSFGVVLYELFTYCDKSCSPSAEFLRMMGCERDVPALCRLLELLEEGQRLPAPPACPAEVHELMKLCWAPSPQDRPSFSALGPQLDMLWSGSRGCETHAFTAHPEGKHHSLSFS"}, "MEKK6": {"biological_target": "T2, MEKK6 (Homo sapiens, UniProt O95382)", "T2 sequence (O95382 1-1288)": "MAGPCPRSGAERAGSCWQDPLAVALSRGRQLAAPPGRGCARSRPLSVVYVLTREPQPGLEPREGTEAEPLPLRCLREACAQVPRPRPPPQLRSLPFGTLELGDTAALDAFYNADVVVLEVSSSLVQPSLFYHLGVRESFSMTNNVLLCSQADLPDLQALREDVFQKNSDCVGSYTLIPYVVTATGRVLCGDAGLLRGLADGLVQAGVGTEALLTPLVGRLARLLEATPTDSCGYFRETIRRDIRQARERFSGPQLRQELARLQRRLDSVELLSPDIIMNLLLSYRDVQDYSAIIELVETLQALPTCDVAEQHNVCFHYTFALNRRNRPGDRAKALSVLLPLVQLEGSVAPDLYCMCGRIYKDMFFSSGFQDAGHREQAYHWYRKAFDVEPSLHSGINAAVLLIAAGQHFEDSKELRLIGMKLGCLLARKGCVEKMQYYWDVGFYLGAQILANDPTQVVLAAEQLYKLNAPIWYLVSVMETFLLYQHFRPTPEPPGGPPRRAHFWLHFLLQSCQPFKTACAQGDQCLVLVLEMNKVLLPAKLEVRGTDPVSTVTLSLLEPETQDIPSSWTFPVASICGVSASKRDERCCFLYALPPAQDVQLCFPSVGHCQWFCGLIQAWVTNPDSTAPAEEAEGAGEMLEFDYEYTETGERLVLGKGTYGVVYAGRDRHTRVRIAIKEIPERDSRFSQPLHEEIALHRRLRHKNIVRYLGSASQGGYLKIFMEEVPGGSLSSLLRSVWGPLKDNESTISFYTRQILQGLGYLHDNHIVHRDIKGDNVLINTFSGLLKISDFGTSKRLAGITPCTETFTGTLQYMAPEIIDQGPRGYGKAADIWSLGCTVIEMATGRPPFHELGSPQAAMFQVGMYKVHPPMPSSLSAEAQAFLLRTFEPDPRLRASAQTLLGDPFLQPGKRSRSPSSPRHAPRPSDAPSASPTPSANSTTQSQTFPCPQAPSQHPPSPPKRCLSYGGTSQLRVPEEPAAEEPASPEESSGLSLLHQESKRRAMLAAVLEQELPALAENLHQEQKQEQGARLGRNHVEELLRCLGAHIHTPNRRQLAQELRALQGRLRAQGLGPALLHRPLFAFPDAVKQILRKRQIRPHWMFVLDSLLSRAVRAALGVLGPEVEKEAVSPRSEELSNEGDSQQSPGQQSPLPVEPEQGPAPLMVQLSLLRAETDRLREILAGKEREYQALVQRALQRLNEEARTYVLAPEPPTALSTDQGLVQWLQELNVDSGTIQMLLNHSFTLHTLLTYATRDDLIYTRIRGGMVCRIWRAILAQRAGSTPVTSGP"}, "MKK7": {"biological_target": "T3, MKK7 (Homo sapiens, UniProt O14733)", "T3 sequence (O14733 1-419)": "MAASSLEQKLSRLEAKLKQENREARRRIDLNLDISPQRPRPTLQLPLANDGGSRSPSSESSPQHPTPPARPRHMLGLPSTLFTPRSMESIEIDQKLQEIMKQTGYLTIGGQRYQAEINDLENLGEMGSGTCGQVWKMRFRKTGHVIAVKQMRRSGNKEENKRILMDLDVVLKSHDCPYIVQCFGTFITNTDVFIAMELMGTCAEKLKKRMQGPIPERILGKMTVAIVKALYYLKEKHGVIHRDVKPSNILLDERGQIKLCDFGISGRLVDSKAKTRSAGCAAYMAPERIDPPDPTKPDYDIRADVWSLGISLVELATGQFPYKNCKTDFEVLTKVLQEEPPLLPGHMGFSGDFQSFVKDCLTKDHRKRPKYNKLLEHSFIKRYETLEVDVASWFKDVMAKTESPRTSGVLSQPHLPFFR"}}, "data": [{"smiles": "COc1cc(-c2cncc(-c3ccc(N4CCN(C)CC4)cc3)c2C)cc(F)c1C(N)=O", "note": "[Compound 26a, 2-Fluoro-6-methoxy-4-(4-methyl-5-(4-(4-methylpiperazin-1-yl)phenyl)pyridin-3-yl)benzamide]", "values": [{"measurement": "% enzyme activity", "setting": "JAK3", "value": 102.92, "unit": "%"}, {"measurement": "% enzyme activity", "setting": "MEKK6", "value": 96.75, "unit": "%"}, {"measurement": "% enzyme activity", "setting": "MKK7", "value": 92.71, "unit": "%"}]}, {"smiles": "COc1cc(-c2cncc(-c3ccc(N4C[C@@H](C)N(C)[C@@H](C)C4)cc3)c2C)cc(F)c1C(N)=O", "note": "[Compound 26c, 2-Fluoro-6-methoxy-4-(4-methyl-5-(4-((3R,5S)-3,4,5-trimethylpiperazin-1-yl)phenyl)pyridin-3-yl)benzamide]", "values": [{"measurement": "% enzyme activity", "setting": "JAK3", "value": 99.31, "unit": "%"}, {"measurement": "% enzyme activity", "setting": "MEKK6", "value": 95.16, "unit": "%"}, {"measurement": "% enzyme activity", "setting": "MKK7", "value": 97.52, "unit": "%"}]}]}
